Test results: patent publication US20100015635A1, “IMMOBILISATION OF FLUORESCENT PROTEINS” (priority 2006, published 2010)

Key:
[1] = Control: emission of mixture of BSA-Atto390 and Hc-Cy5 during deoxygenation, excitation 280 nm; conditions: solution mixture
Description: To rule out that the changes in dye fluorescence might be due to a specific quenching by molecular oxygen, a mixture of Atto390 labelled bovine serum albumin (BSA) and Hc-Cy5 was deoxygenated while recording emission spectra from 300 to 750 nm upon excitation at 280 nm. The applied labels emit at different wavelengths, therefore permitting the simultaneous observation of each individual conjugate. […] With the labels exchanged, the reverse was observed. From this it can be concluded that the variations in label fluorescence correlate with the binding of O2 to the labelled hemocyanin. […] Similar observations were made for Ty.

[2] = Sol-gel controls: O2 dependence of non-binding species, leaking, storage stability; format: physicochemical; conditions: individually encapsulated in a sol-gel matrix
Description: [19]. The buffer solution surrounding the quartz slides was checked for leaking of the labeled protein out of the matrix. […] As already reported, the mechanical strength of silica gels often prevents the leaking of biomolecules. 3) Tryptophan fluorescence has been used to study stability and flexibility of proteins upon entrapment.

[3] = Switching ratio of Trp/label emission of tyrosinase (Ty) on deoxygenation, excitation 280 nm; design: species or system Streptomyces antibioticus; conditions: emission of Trp or of N-terminal dye label on Ty, excitation at 280 nm
Protocol: To illustrate this Example, Ty from the soil bacterium Streptomyces antibiotius was selected.
S.c. Ty contains 12 Trp residues on a total of 271 amino-acids (4.4% against ˜1% on average), which cluster around the type-3 centre. […] In an air-saturated solution (0.26 mM O2), practically all protein occurs in the oxygenated form (see FIG. 2A). Upon complete deoxygenation, the Trp fluorescence increases by a factor of 2.7 while the shape and position of the emission band remain unchanged. For the C.a. Hc samples, this factor, further referred to as the switching ratio SR (=Fred/Foxy), amounts to 2.2.
Both Hc and Ty were labelled at their N-terminus with each of the five dyes. […] The peak around […] is a second-order artefact. In a solution containing dye and protein separately (not linked) this peak (280 nm) was missing. The second order artefact is due to higher orders of light being allowed through the monochromator. The artefact can be excluded by placing a cut-off filter in the detection path that allows through light only beyond a certain wavelength (for example […]).
In all cases, an increase in label emission was observed after deoxygenating the sample (FIG. 4A). […] The Cy3 fluorescence is specific for the labelled protein, while the Trp emission derives mainly (>95%) from unlabelled Hc. […]

BSA-Atto390: Atto390 labelled bovine serum albumin, control
dependence of label emission on [O2] [1]: does not

bovine serum albumin labeled with Cy5: BSA labeled with Cy5 encapsulated in a sol-gel matrix, control
dependence of fluorescence intensity on [O2] [2]: neither unreacted Cy5 nor bovine serum albumin labeled with Cy5, both individually encapsulated in a sol-gel matrix, depended on the [O2]

B1: Ty: tyrosinase from the soil bacterium Streptomyces antibiotius (protein, UniProt P07524 2-273, looked up)
Tyrosinase: TVRKNQASLTAEEKRRFVAALLELKRTGRYDAFVTTHNAFILGDTDNGERTGHRSPSFLPWHRRFLLEFERALQSVDASVALPYWDWSADRSTRSSLWAPDFLGGTGRSRDGQVMDGPFAASAGNWPINVRVDGRTFLRRALGAGVSELPTRAEVDSVLAMATYDMAPWNSGSDGFRNHLEGWRGVNLHNRVHVWVGGQMATGVSPNDPVFWLHHAYIDKLWAEWQRRHPSSPYLPGGGTPNVVDLNETMKPWNDTTPAALLDHTRHYTFDV
SR Tyr (switching ratio Fred/Foxy) [3]: 2.7
